Results taken from patent US7884067B2, “Peptides derived from cadherin and methods of use thereof” (Mount Sinai School of Medicine of New York University, priority 2001, dated 2011).

What was measured:
[1] = system: E-cadherin/catenin cytoskeletal complex; test: Ionomycin-induced CAJ disassembly in A431 cells, subcellular fractionation and Western blot; type: cell-based, human; conditions: 30 minutes preincubation with L-685,458, then ionomycin
Procedure: Subcellular fractionation. Confluent A431 cells (one 100 mm dish) were rinsed and scraped with 4° C. phosphate-buffered saline (PBS). Cells were then placed into 1 ml of buffer A (20 mM Tris-HCl [pH 7.5], 0.25 M sucrose, 10 mM EGTA, 2 mM EDTA, 1× Complete protease inhibitor cocktail, Roche), passed through a 27 gauge needle 10 times, and the obtained cell lysate was centrifuged at 500×g for 10 min at 4° C. The supernatant was then centrifuged at 120,000×g for 45 min at 4° C. to separate the cytosolic and crude membrane fractions. The pellet (crude membrane fraction) was washed twice with buffer A and resuspended by sonication in […] of buffer A containing 1% Triton X-100. The suspension was incubated at 4° C. for 30 min and then centrifuged at 120,000×g for 45 min at 4° C. to separate the membrane and Triton X-100-insoluble fractions. The pellet (Triton X-100-insoluble fraction) was washed twice with buffer A and solubilized by sonication in RIPA buffer. […] of proteins from the different fraction were analyzed by SDS-PAGE.
In stable cell-cell adhesion, the E-cadherin/β-catenin complex of the CAJ is anchored to the actin cytoskeleton via catenin and this association is manifested by the insolubility of the complex components in Triton X-100 (Baki et al., (2001)). Induction of apoptosis or calcium influx disrupts cadherin-mediated cell-cell adhesion by cleaving cadherin and disassembling the CAJ complexes. To determine whether the γ-secretase cleavage of E-cadherin is involved in the CAJ disassembly, calcium influx was induced with ionomycin (10 μM) in A431 cells preincubated for 30 minutes in the absence or presence of the γ-secretase inhibitor L-685,458. Cell extracts were fractionated, and analyzed on Western blots with antibodies against cytoplasmic E-cadherin C36 or β- and α-catenins. […] In addition, L-685,458 delayed the ionomycin-induced decrease of cytoskeletal β-catenin and α-catenin and inhibited their release to the soluble cytosol.

N-cadherin [2] = test: In vitro ε-cleavage assay, membranes from mouse brain neuronal cultures; type: biochemical; conditions: PS1+/− neurons, L-685,458 (0.5 μM)
Procedure: Primary, neuronal cultures. Mixed hippocampal and cortical neuronal cultures were prepared from E18 mouse or rat brains as described by Banker and Goslin (1991) Culturing Nerves Cells, London, MIT Press. Neurons were maintained 10 days in vitro in glial conditioned MEM containing 2% glucose and N2 supplements as described by Bottenstein and Sato (1979) Proc. Natl. Acad. Sci. USA 76: 514-517, and then were stimulated for 15 minutes with Mg2+-free Hanks' balanced salt solution (HBSS, Sigma) containing KCl (50 mM), L-Glutamate ([…]) or NMDA ([…]). D-APV ([…]) was applied 15 minutes before stimulation.
(§1) In vitro γ-secretase-like ε-cleavage assay. Cells were washed in PBS, resuspended in 1 ml of 4° C. hypotonic buffer (10 mM MOPS, pH 7.0, 10 mM KCl) and homogenized on ice. A post-nuclear supernatant was prepared by centrifugation at 1000×g for 15 minutes at 4° C. Crude membranes were isolated from the post-nuclear supernatant by centrifugation at 16,000×g for 40 minutes at 4° C. The membranes were then resuspended in […] of assay buffer (150 mM sodium citrate, pH 6.4, 1× Complete protease inhibitor cocktail), and incubated at 37° C. for 2 hours. Samples were either analyzed directly by WB or separated into pellet (P100) and supernatant (S100) fractions by ultracentrifugation for 1 hour at 100,000×g at 4° C. The S100 and P100 fractions were then analyzed by WB.

N-cadherin [3] = test: In vitro ε-cleavage assay, membranes from embryonic fibroblast cultures (WT / PS1 P264L knock-in study); type: biochemical, mouse; conditions: FIG. 13A lanes 1 and 2
Procedure: as §1
To investigate the consequences of FAD mutations in a physiologically relevant system in the absence of PS1 overexpression, the ε-cleavage of N-cadherin was examined in two independent embryonic fibroblast clones derived from a gene-targeted (knock-in) mouse homozygous for the human PS1 FAD mutation P264L (Siman et al. (2000) J. Neurosci. 20:8717-8726). Expression of the knock-in mutant PS1 allele is under the control of the endogenous PS1 gene. These models are distinct from overexpressing transgenic models because the mutant gene is expressed at normal levels, similar to those observed in WT models (FIG. 13, panel d). […]

[4] = system: CRE-dependent transactivation; test: CRE-dependent transactivation (luciferase) in L cells; type: cell-based; conditions: L cells transfected with increasing amount of pN-Cad/CTF2, FIG. 9A
Procedure: Transactivation assays. CRE-dependent transactivation was measured in the absence or presence of overexpression of PKA (pFC-PKA, Stratagene) by cotransfection with CRE-luciferase reporter plasmid (pCRE-Luc, Stratagene) and pSV-β-galactosidase vector (Promega) to evaluate transfection efficiency. CHOP-mediated transactivation was measured by cotransfection with the Gal4-fusion trans-activator plasmids (pFA-CHOP and pFR-Luc, Stratagene). 30 hours after transfection, luciferase and β-galactosidase activities were determined following manufacturer's instructions using a TD-20/20 luminometer (Turner Designs) and a DU-64 spectrophotometer (Beckman). Values were normalized to β-galactosidase activity and protein concentration.
Stimulation of synaptic NMDA receptor leads to phosphorylation of transcription factor CREB that then recruits transcription co-activator CBP, a process ultimately leading to activation of CREB-mediated gene expression (Impey and Goodman (2001) Sci STKE, PE1). […] CRE-dependent transactivation was measured in the absence (−) or presence (+) of […] PKA (pFC-PKA) using CRE-luciferase reporter plasmid (pCRE-Luc) and pSV-β-galactosidase vector. CHOP-mediated transactivation was measured by […] with the Gal4-fusion trans-activator plasmids (pFA-CHOP and pFR-Luc) and pSV-β-galactosidase vector. […]

CC(C)C[C@H](NC(=O)[C@H](Cc1ccccc1)C[C@@H](O)[C@H](Cc1ccccc1)NC(=O)OC(C)(C)C)C(=O)N[C@@H](Cc1ccccc1)C(N)=O [L-685,458]
ionomycin-induced decrease of cytoskeletal β-catenin and α-catenin [1]: delayed | ionomycin-induced degradation of the full length E-cadherin [1]: partially inhibited | ionomycin-induced metabolism of cytoskeletal E-Cad/CTF1 [1]: blocked | production of soluble cytosolic E-Cad/CTF2 [1]: abolished | release of β-catenin and α-catenin to the soluble cytosol [1]: inhibited | N-Cad/CTF2 peptide (N-cadherin [2]): inhibited | production of N-Cad/CTF2 (N-cadherin [3]): sensitive

B1: N-Cad/CTF2: chicken cytoplasmic domain of N-cadherin (N-Cad/CTF2) inserted into vector pECE, expressed in L cells (protein)
chain: KRRDKERQAKQLLIDPEDDVRDNILKYDEEGGGEEDQDYDLSQLQQPDTVEPDAIKPVGIRRLDERPIHAEPQYPVRSAAPHPGDIGDFINEGLKAADNDPTAPPYDSLLVFDYEGSGSTAGSLSSLNSSSSGGEQDYDYLNDWGPRFKKLADMYGGGDD
constitutive and PKA-stimulated CRE-dependent transactivation [4]: inhibits both constitutive and PKA-stimulated CRE-dependent transactivation in a dose-dependent manner
